Our source for the viscosity values is the NIST ThermoML archive (doi:10.1021/je700746a).

± gives the expanded uncertainty stated by the source.

The conditions of the series: 298.15 K; 101.33 kPa; Liquid.

As usually defined, the viscosity is the internal friction of a fluid under shear. As for `CC(=O)CC(C)C` [4-methylpentan-2-one], the viscosity is recorded as 0.56 ± 0.04 mPa·s.
